Like-named read-outs stand apart in the source and are kept apart here.

What is called inhibition is the percentage by which the read-out fell short of the control. As a reminder, the Km is the substrate concentration at which the rate is half of its maximum.

The target of assay [1] is T1, Corynebacterium glutamicum glucose 6-phosphate dehydrogenase (G6PDH, zwf), variant A243T (Corynebacterium glutamicum, UniProt Q8NQ63).
T1 construct: grown on glucose minimal medium
Nature of the assay: Kinetic characterization of A243T-variant of G6P dehydrogenase (Michaelis-Menten constants and inhibition by metabolites). The format is biochemical. The following applies: for Km: A243T mutant, cell extracts from cells grown on minimal medium with glucose, 30° C., pH 7.8. On the procedure: (§1) In the exponential growth phase, cells were harvested by centrifugation (5 min, 9800×g, Biofuge stratos, Heraeus, Hanau, Germany), washed once with disruption buffer and finally suspended to 0.25 g CWW per mL. Disruption was performed by sonication (MSE soniprep 150, Sanyo Europe, Munich, Germany) in a ice-water-bath with five 15 sec pulses at 20 microns, or mechanically. To this end, cell suspension was aliquoted in 750 μl amounts in 2 mL Eppendorf tubes containing glass beads. Disruption was performed in a ribolyser (MM301, Retsch, Haan, Germany) at 30 Hz (2×5 min; 5 minutes break in between). Crude cell extracts were obtained by centrifugation for 10 minutes at 13000 rpm (Biofuge fresco, Heraeus, Hanau, Germany) for ribolyser disruption or 2×30 min at 8500 rpm (Biofuge stratos, Heraeus, Hanau, Germany) for disruption by sonication. Protein content was determined by the method of Bradford (Bradford, 1976) with a reagent solution from BioRad (Quick Start Bradford Dye, BioRad, Hercules, USA) and a BSA protein standard.
(§2) All measurements were performed as triplicates in a total volume of 1 mL by online monitoring of the change in absorbance in a photospectrometer (Specord 40, Analytik Jena, Jena, Germany or Helios alpha, Thermo Scientific, Waltham, USA). Negative controls were carried out without substrate or cell extract, respectively. Activities are given as specific enzyme activity [U mg^−1] with 1 U=1 μmol min^−1 at 30° C. and calculated from the change in absorbance [A min^−1] and a specific extinction coefficient of ε340=6.22 L mmol^−1 cm^−1 for NAD(P)H. As a general procedure, a master mix without substrate and cell extract was prepared from the stock solutions for the reaction buffer, MgCl2, Co-factors (NADP, NAD, NADH, ADP, TPP, CoA) and coupling enzymes (LDH, G6PDH, PGI, ribose 5-phosphate isomerase (RPI), ribulose 5-phosphate epimerase (RPE), TPI/GDH) and incubated for 10 min at 30° C. Substrate solution and cell extract were provided in 1.5 mL polystyrene cuvettes (Plastibrand, Wertheim, Germany). The reaction was started by quick addition of the master mix.
Cell disruption was performed in a buffer containing 100 mM Tris/HCl (pH 7.5), 10 mM MgCl2 and 0.75 mM DTT. DTT was prepared freshly as 100 mM stock solution and added to the cell suspension before disruption. Due to instability of the enzyme, the activity was measured immediately after cell disruption. The reaction mix for quantification of the G6P dehydrogenase activity contained 100 mM Tris/HCl (pH 7.8), 200 mM KCl, 1 mM NADP, 10 mM MgCl2, 5 mM G6P and 50 μl cell extract. Michaelis-Menten affinity constants were determined by varying the concentrations of the substrates, G6P or NADP, respectively. To test the influence of effectors on activity, the reaction mix was additionally supplemented with ATP, PEP, FBP or NADPH in varied concentrations.

For assay [2], the target named is T2, Corynebacterium glutamicum glucose 6-phosphate dehydrogenase (G6PDH, zwf), wild type (Corynebacterium glutamicum, UniProt Q8NQ63).
T2 sequence (Q8NQ63 1-484): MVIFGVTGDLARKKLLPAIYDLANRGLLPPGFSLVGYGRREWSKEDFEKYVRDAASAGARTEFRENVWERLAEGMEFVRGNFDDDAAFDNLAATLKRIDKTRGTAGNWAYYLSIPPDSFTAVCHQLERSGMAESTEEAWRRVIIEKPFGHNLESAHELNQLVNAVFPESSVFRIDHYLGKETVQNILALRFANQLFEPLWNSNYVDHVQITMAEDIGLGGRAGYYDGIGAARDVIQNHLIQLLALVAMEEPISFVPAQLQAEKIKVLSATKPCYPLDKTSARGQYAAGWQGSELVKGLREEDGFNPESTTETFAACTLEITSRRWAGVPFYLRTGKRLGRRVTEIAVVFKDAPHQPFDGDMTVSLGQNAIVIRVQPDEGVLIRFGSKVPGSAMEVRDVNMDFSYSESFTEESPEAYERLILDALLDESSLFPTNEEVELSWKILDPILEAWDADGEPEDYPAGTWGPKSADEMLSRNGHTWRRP
T2 sequence (Q8NQ62 1-319 partner): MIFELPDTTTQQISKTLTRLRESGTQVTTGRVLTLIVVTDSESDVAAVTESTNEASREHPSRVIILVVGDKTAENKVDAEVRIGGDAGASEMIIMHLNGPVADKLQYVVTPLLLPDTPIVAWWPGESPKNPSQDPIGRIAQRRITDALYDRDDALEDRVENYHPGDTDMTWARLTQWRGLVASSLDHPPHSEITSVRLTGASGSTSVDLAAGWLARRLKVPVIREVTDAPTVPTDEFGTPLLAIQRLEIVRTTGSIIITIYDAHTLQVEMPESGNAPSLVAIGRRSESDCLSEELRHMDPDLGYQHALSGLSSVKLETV
In words: Kinetic characterization of wild type G6P dehydrogenase (Michaelis-Menten constants and inhibition by metabolites). Type of assay: biochemical. The note with it: relative to the activity without addition (100%). The procedure:
as §1
as §2, with “Negative controls were carried out without substrate or cell extract, respectively.” left out, “Substrate solution and cell extract were provided in 1.5 mL polystyrene cuvettes (Plastibrand, Wertheim, Germany). The reaction was started by quick addition of the master mix.” left out
Cell disruption was performed in a buffer containing 100 mM Tris/HCl (pH 7.5), 10 mM MgCl2 and 0.75 mM DTT. […] Due to instability of the enzyme, the activity was measured immediately after cell disruption. […]

Assay [3] concerns Corynebacterium glutamicum diaminopimelate dehydrogenase (DDH), SEQ ID NO: 6. The note with it: Wehrmann, et al., 1998; read-out: km value towards ammonium; cited from earlier work.

On to `Nc1ncnc2c1ncn2[C@@H]1O[C@H](COP(=O)(O)OP(=O)(O)OP(=O)(O)O)[C@@H](O)[C@H]1O` [ATP, Adenosine triphosphate], for which the “Inhibition by metabolites (Remaining Activity), ATP” value in assay [1] (5 mM ATP, relative to the activity without addition (100%)) was determined as 86.0 ± 0.2%. For the same compound, the percent remaining activity at 5000 µM in assay [2] (5 mM ATP) was determined as 68.8 ± 0.1%.

Take `O=P(O)(O)OC[C@H]1OC(O)(COP(=O)(O)O)[C@@H](O)[C@@H]1O` (stereo partly shown) [FBP, Fructose 1,6-bisphosphate]: the “Inhibition by metabolites (Remaining Activity), FBP” value in assay [1] (5 mM FBP, relative to the activity without addition (100%)) was 87.0 ± 0.1%. Also, the inhibition at 5000 µM in assay [2] (5 mM FBP, read-out: Inhibition by metabolites (Remaining Activity), FBP) turned out to be 84.4%. As for `O=P(O)(O)OC[C@H]1OC(O)[C@H](O)[C@@H](O)[C@@H]1O` (stereo partly shown) [G6P, Glucose 6-phosphate], in assay [1] (read-out: KM, G6P), the Km is 481 ± 31 µM. In the case of `NC(=O)c1ccc[n+]([C@@H]2O[C@H](COP(=O)(O)OP(=O)(O)OC[C@H]3O[C@@H](n4cnc5c(N)ncnc54)[C@H](OP(=O)(O)O)[C@@H]3O)[C@@H](O)[C@H]2O)c1` [NADP, Nicotinamide adenine dinucleotide phosphate], in assay [1] (read-out: KM, NADP), the Km worked out at 75 ± 4 µM.

As for `NC(=O)C1=CN([C@@H]2O[C@H](COP(=O)(O)OP(=O)(O)OC[C@H]3O[C@@H](n4cnc5c(N)ncnc54)[C@H](OP(=O)(O)O)[C@@H]3O)[C@@H](O)[C@H]2O)C=CC1` [NADPH, Nicotinamide adenine dinucleotide phosphate], the “inhibition by NADPH” value in assay [1] (A243T compared with wild type enzyme, FIG. 10B) is reported as “No significant difference”. `C=C(OP(=O)(O)O)C(=O)O` [PEP, Phosphoenolpyruvate]: the “Inhibition by metabolites (Remaining Activity), PEP” value in assay [1] (5 mM PEP, relative to the activity without addition (100%)) is 72.5 ± 0.1%. Besides, the inhibition at 5000 µM in assay [2] (5 mM PEP, read-out: Inhibition by metabolites (Remaining Activity), PEP) was found to be 62.6 ± 0.1%. As for `N` [ammonium], the Km in assay [3] was 34000 µM.

These data come from US9169502B2, “Method of producing L-lysine using a Corynebacterium glutamicum microorganism” (Paik Kwang Industrial Co., Ltd., priority 2010, dated 2015).
